According to publication PMC3988166 (PLoS ONE, 2014):
Like-named read-outs stand apart in the source and are kept apart here.

How the values were obtained:
[1] = Caco-2 cell permeability assay in the presence of phloretin (inhibitor for GLUT2); type: in vitro ADME, human; details: Caco-2 cell monolayer, 200 µM compound + 100 µM phloretin, n = 3; read-out: P app, Phloretin
Procedure: (§1) Permeability experiments (as described above) were conducted to investigate whether the compounds used the sugar transporters SGLT1 or GLUT2 for their transport across cell membranes. Samples containing 200 µM test compound and 100 µM phlorizin (inhibitor for SGLT1) or 100 µM phloretin (inhibitor for GLUT2) in HBSS-HEPES buffer were added to the apical chamber. […] P app values for each compound were then calculated as above.

Caco-2 cell monolayers = assay: Caco-2 cell permeability assay
Procedure: (§2) Human colorectal adenocarcinoma cells (Caco-2 cells) were obtained from the American Type Culture Collection, Rockville, USA. A Branson Sonifier 250 (Branson Ultrasonics, Danbury, USA) was used to lyse the cells for stability experiments. Protein content was measured using the BioRad protein assay kit (BioRad, Hercules, USA). TPP 96-well plates for stability assays were purchased from Sigma Aldrich (Castle Hill, Australia). For permeability studies Caco-2 cell monolayers were grown in 24 well plates with Transwell polycarbonate cell culture inserts (pore size 0.4 µm, diameter 6.5 mm) from Corning Incorporated (New York, USA). A Millicell-ERS epithelial Transep volt-ohmmeter system (EMD Millipore Corporation, Billerica, USA) was used to measure the transepithelial electrical resistance (TEER) values of the cells. Scintillation counting was carried out using Liquid Scintillation Systems from Beckman Coulter (Brea, USA).
(§3) A cell suspension of Caco-2 cells in the cell culture medium was adjusted to a cell density of 1×10^6 cells/mL before being aliquoted (100 µL) into Transwell polycarbonate cell culture inserts in a 24-well plate, while 600 µL of media was added to the basolateral chamber. The culture medium was changed every other day for 21–28 days. TEER values were measured before and after the assay, to determine the integrity of tight junctions of the cell monolayers. […] Cell monolayers were washed with pre-warmed HBSS–HEPES and incubated for 30 min at 37°C. Test compounds and the control propanolol, were prepared in HBSS–HEPES buffer to a final concentration of 200 µM. After incubation, buffer in the apical chamber was removed and replaced with 100 µL aliquots of each of the test compounds. […] The concentration of the peptide in the collected samples was determined using LC-MS analysis as described for the stability assay above. Radioactivity of the [^14C]-D-mannitol samples was quantified by liquid scintillation counting (Liquid Scintillation Systems).
(§4) The apparent permeability (Papp, cm/s) of each compound was calculated using the following equation: [drawing 1]
(§5) Where dC/dt is the steady-state rate of change in the test item concentration (M/s) or radiochemical concentration (dpm mL/s) in the receiver chamber, Vr is the volume of the receiver chamber (mL), A is the surface area of the cell monolayers and C0 is the initial concentration in the donor chamber (M or dpm/mL).
(§6) The average Papp values (±S.D.) from three replicates is presented.

[2] = Caco-2 cell permeability assay; details: Caco-2; for Papp A→B at 150 min, 200 µM: human
Procedure: as §2, §3, §4, §5, §6

Recombinant human ASGPR = target: T1, Recombinant human ASGPR (Homo sapiens, UniProt P07306); assay: biochemical; type: binding
T1 construct: purchased Sino Biological Inc. (Beijing, China)
T1 sequence (P07306 62-291 limits assumed): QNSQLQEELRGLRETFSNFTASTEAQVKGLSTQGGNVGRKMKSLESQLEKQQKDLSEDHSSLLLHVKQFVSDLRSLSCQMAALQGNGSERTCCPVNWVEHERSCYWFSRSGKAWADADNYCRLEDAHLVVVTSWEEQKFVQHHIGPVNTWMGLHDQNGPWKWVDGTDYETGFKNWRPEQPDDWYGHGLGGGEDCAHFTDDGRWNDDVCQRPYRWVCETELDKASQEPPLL
Procedure: SPR experiments were performed on a Biacore T100 (GE Healthcare, Little Chalfont, UK) at 25°C. Recombinant human ASGPR (the subunit of ASGPR that contains the carbohydrate binding site) used was from Sino Biological Inc. (Beijing, China). The receptor was immobilized onto a series S sensor chip CM5 (GE Healthcare, Little Chalfont, UK) using the N-hydroxysuccinimide (NHS) capture kit (GE Healthcare, Little Chalfont, UK).
Recombinant human ASGPR was immobilized onto a series S sensor chip CM5 using the NHS capture kit, where ASGPR was covalently linked to the surface of the chip via free amine groups. Compounds were tested at 10–1000 µM concentrations using multi-cycle kinetics with at least three experiments performed for each interaction. Single cycle kinetics was applied to optimize concentrations prior to completion of multi-cycle kinetics as described by Dumont et al.. […] The running buffer for all SPR experiments was 20 mM HEPES, pH 7.4, 150 mM NaCl, 5 mM CaCl2, and 0.005% TWEEN 20.

Plasma stability assay = type: in vitro ADME; details: human, after incubation at 37°C for 120 min, read-out: % remained in human plasma
Procedure: Blood sample collection from a healthy and consenting human adult for this study was approved by and conducted according to the guidelines set by The University of Queensland Medical Research Ethics Committee (approval number: 2009000661). Written consent was obtained prior to the collection of blood samples. Plasma was isolated from fresh-heparin treated blood by centrifugation at 660×g for 15 min. […] Compounds (300 µL) were mixed with 300 µL of the plasma, pre-warmed at 37°C and incubated at 37°C. Samples (50 µL) were collected at predetermined time points (0, 5, 10, 20, 30, 40, 60, 90 and 120 min), and added into 75 µL ACN to precipitate the plasma proteins. Samples were then centrifuged at 7300×g for 10 min.

[3] = Caco-2 cell permeability assay in the presence of phlorizin (inhibitor for SGLT1); type: in vitro ADME, human; details: Caco-2 cell monolayer, 200 µM compound + 100 µM phlorizin, n = 3; read-out: P app, Phlorizin
Procedure: as §1

[4] = target: Leu-enkephalin (Homo sapiens); assay: SPR
Gal-Enk (Homo sapiens) = assay: SPR
[5] = target: Gal-Lac-Enk (Homo sapiens); assay: SPR
Lac-Enk (Homo sapiens) = assay: SPR

Question: Which Papp A→B [1] does the source give for CC(C)C[C@H](NC(=O)[C@H](Cc1ccccc1)NC(=O)CNC(=O)CNC(=O)[C@H](Cc1ccc(O)cc1)NC(=O)CCC(=O)N[C@@H]1O[C@H](CO)[C@@H](O[C@@H]2O[C@H](CO)[C@H](O)[C@H](O)[C@H]2O)[C@H](O)[C@H]1O)C(N)=O [Lac-Enk, N^1-Leu-enkephalin-N^4-(β-D-galactopyranosyl-(1→4)-β-D-glucopyranosyl)succinamide] here?
Answer: 0.921 ± 0.084 ×10⁻⁶ cm/s

Question: And the “P app, Control (compound only)” value (Caco-2 cell monolayers; Caco-2 cell monolayer, 200 µM, n = 3)?
Answer: 17.20±12.40 ×10^−7 cm/s

Question: And the Papp A→B [2]?
Answer: 1.72 ×10⁻⁶ cm/s

Question: What about the koff (Recombinant human ASGPR) of the same molecule?
Answer: 0.0086 ± 0.002 s⁻¹

Question: What about the kon (Recombinant human ASGPR) of the same molecule?
Answer: 40.7 ± 6.3 M⁻¹ s⁻¹

Question: What about the Kd (Recombinant human ASGPR; KD) of the same molecule?
Answer: 211 ± 70.9 µM

Question: And the remaining at 2 h, 0.5 mg/mL (Plasma stability assay)?
Answer: ~70%

Question: What about the Papp A→B [3] of the same molecule?
Answer: 0.711 ± 0.145 ×10⁻⁶ cm/s

Question: With OC[C@@H](O)[C@@H](O)[C@H](O)[C@H](O)CO [^14C mannitol, [^14C]-D-mannitol, reference compound] as the molecule, how does the “apparent permeability (Papp)” value (Caco-2 cell monolayers; Caco-2 monolayers, apical to basolateral, compound only, values in text) read?
Answer: 4.4×10^−9 (±3.86) cm/s

Question: For CC(C)NCC(O)COc1cccc2ccccc12 (stereo not drawn) [propanolol, reference compound], which Papp A→B at 150 min, 200 µM [2] is on record?
Answer: 134 ×10⁻⁶ cm/s

Question: With OC[C@H]1O[C@@H](O[C@H]2[C@H](O)[C@@H](O)[C@H](O)O[C@@H]2CO)[C@H](O)[C@@H](O)[C@H]1O [D-Lactose, reference compound] as the molecule, how does the Kd (Recombinant human ASGPR; SPR, immobilized ASGPR, 25°C, read-out: KD) read?
Answer: 19.2 ± 3.28 µM

Question: With CC(C)C[C@H](NC(=O)[C@H](Cc1ccccc1)NC(=O)CNC(=O)CNC(=O)[C@H](Cc1ccc(O)cc1)NC(=O)CCC(=O)N[C@@H]1O[C@H](CO)[C@H](O)[C@H](O)[C@H]1O)C(N)=O [Gal-Enk, N^1-Leu-enkephalin-N^4-(β-D-galactopyranosyl)succinamide] as the molecule, how does the Papp A→B [1] read?
Answer: 1.58 ± 0.723 ×10⁻⁶ cm/s

Question: What about the Papp A→B at 150 min, 200 µM [2] of the same molecule?
Answer: 0.798 ± 0.203 ×10⁻⁶ cm/s

Question: What about the koff (Recombinant human ASGPR) of the same molecule?
Answer: 0.072 ± 0.025 s⁻¹

Question: What about the kon (Recombinant human ASGPR) of the same molecule?
Answer: 328 ± 84.8 M⁻¹ s⁻¹

Question: And the Kd (Recombinant human ASGPR; KD)?
Answer: 219 ± 164 µM

Question: What about the remaining at 2 h, 0.5 mg/mL (Plasma stability assay) of the same molecule?
Answer: ~60%

Question: And the Papp A→B [3]?
Answer: 1.18 ± 0.276 ×10⁻⁶ cm/s

Question: With CC(C)C[C@H](NC(=O)[C@H](Cc1ccccc1)NC(=O)CNC(=O)CNC(=O)[C@H](Cc1ccc(O)cc1)NC(=O)CCC(=O)N[C@@H]1O[C@H](CO)[C@@H](O[C@@H]2O[C@H](CO)[C@H](O[C@H]3O[C@H](CO)[C@H](O)[C@H](O)[C@H]3O)[C@H](O)[C@H]2O)[C@H](O)[C@H]1O)C(N)=O [Gal-Lac-Enk, N^1-Leu-enkephalin-N^4-(α-D-galactopyranosyl-(1→4)-β-D-galactopyranosyl-(1→4)-β-D-glucopyranosyl)succinamide] as the molecule, how does the Papp A→B [1] read?
Answer: 0.712 ± 0.137 ×10⁻⁶ cm/s

Question: What about the Papp A→B at 150 min, 200 µM [2] of the same molecule?
Answer: 0.44 ± 0.163 ×10⁻⁶ cm/s

Question: What about the “increase in binding affinity compared to the peptide alone” value (Recombinant human ASGPR) of the same molecule?
Answer: two-fold

Question: And the koff (Recombinant human ASGPR)?
Answer: 0.0041 ± 0.003 s⁻¹

Question: What about the kon (Recombinant human ASGPR) of the same molecule?
Answer: 45 ± 28.9 M⁻¹ s⁻¹

Question: And the Kd (Recombinant human ASGPR; KD)?
Answer: 91.1 ± 22.1 µM

Question: And the remaining at 2 h (Plasma stability assay; plasma)?
Answer: ~100%

Question: What about the Papp A→B [3] of the same molecule?
Answer: 0.561 ± 0.137 ×10⁻⁶ cm/s

B1: Asialoglycoprotein receptor (ASGPR, carbohydrate-binding subunit), P07306 (protein)
chain: MTKEYQDLQHLDNEESDHHQLRKGPPPPQPLLQRLCSGPRLLLLSLGLSLLLLVVVCVIGSQNSQLQEELRGLRETFSNFTASTEAQVKGLSTQGGNVGRKMKSLESQLEKQQKDLSEDHSSLLLHVKQFVSDLRSLSCQMAALQGNGSERTCCPVNWVEHERSCYWFSRSGKAWADADNYCRLEDAHLVVVTSWEEQKFVQHHIGPVNTWMGLHDQNGPWKWVDGTDYETGFKNWRPEQPDDWYGHGLGGGEDCAHFTDDGRWNDDVCQRPYRWVCETELDKASQEPPLL
Question: Which Kd [4] does the source give for B1 here?
Answer: 277 µM

Question: What about the Kd (Gal-Enk (Homo sapiens)) of the same molecule?
Answer: 219 µM

Question: What about the Kd [5] of the same molecule?
Answer: 91.1 µM

Question: What about the Kd (Lac-Enk (Homo sapiens)) of the same molecule?
Answer: 211 µM
